According to patent publication US9693556B2, “Herbicidal pyridazinone derivatives” (SYNGENTA LIMITED, priority 2011, dated 2017):

What was measured:
Format in all cases: in vivo
[1] = tested on: Alopecurus myosuroides (ALOMY); assay: Pre-emergence herbicidal glasshouse test on Alopecurus myosuroides; conditions: pre-emergence; 1000 g/h; evaluated after 13 days
Procedure, shortened: (§1)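 Read-out: percentage herbicidal damage 13 days after spraying, given on a five-point scale (5=80-100%, 4=60-79%, 3=40-59%, 2=20-39%, 1=0-19%). Pots of standard soil; application at 1000 g/h, one day post-sowing for pre-emergence, eight days for post-emergence.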

[2] = tested on: Setaria faberi (SETFA); assay: Pre-emergence herbicidal glasshouse test on Setaria faberi; conditions: pre-emergence; 1000 g/h; evaluated after 13 days
Procedure, shortened: as §1

[3] = tested on: Echinochloa crus-galli (ECHCG); assay: Pre-emergence herbicidal glasshouse test on Echinochloa crus-galli; conditions: pre-emergence; 1000 g/h; evaluated after 13 days
Procedure, shortened: as §1

[4] = tested on: Solanum nigrum (SOLNI); assay: Pre-emergence herbicidal glasshouse test on Solanum nigrum; conditions: pre-emergence; 1000 g/h; evaluated after 13 days
Procedure, shortened: as §1

[5] = tested on: Amaranthus retoflexus (AMARE); assay: Pre-emergence herbicidal glasshouse test on Amaranthus retoflexus; conditions: pre-emergence; 1000 g/h; evaluated after 13 days
Procedure, shortened: as §1

[6] = tested on: Ipomoea hederacea (IPOHE); assay: Pre-emergence herbicidal glasshouse test on Ipomoea hederacea; conditions: pre-emergence; 1000 g/h; evaluated after 13 days
Procedure, shortened: as §1

[7] = tested on: Alopecurus myosuroides (ALOMY); assay: Post-emergence herbicidal glasshouse test on Alopecurus myosuroides; conditions: post-emergence; 1000 g/h; evaluated after 13 days
Procedure, shortened: as §1

[8] = tested on: Setaria faberi (SETFA); assay: Post-emergence herbicidal glasshouse test on Setaria faberi; conditions: post-emergence; 1000 g/h; evaluated after 13 days
Procedure, shortened: as §1

[9] = tested on: Echinochloa crus-galli (ECHCG); assay: Post-emergence herbicidal glasshouse test on Echinochloa crus-galli; conditions: post-emergence; 1000 g/h; evaluated after 13 days
Procedure, shortened: as §1

[10] = tested on: Solanum nigrum (SOLNI); assay: Post-emergence herbicidal glasshouse test on Solanum nigrum; conditions: post-emergence; 1000 g/h; evaluated after 13 days
Procedure, shortened: as §1

[11] = tested on: Amaranthus retoflexus (AMARE); assay: Post-emergence herbicidal glasshouse test on Amaranthus retoflexus; conditions: post-emergence; 1000 g/h; evaluated after 13 days
Procedure, shortened: as §1

[12] = tested on: Ipomoea hederacea (IPOHE); assay: Post-emergence herbicidal glasshouse test on Ipomoea hederacea; conditions: post-emergence; 1000 g/h; evaluated after 13 days
Procedure, shortened: as §1

SMILES	PRE Application ALOMY herbicidal damage (five point scale) [1]	PRE Application SETFA herbicidal damage (five point scale) [2]	PRE Application ECHCG herbicidal damage (five point scale) [3]	PRE Application SOLNI herbicidal damage (five point scale) [4]	PRE Application AMARE herbicidal damage (five point scale) [5]	PRE Application IPOHE herbicidal damage (five point scale) [6]	POST Application ALOMY herbicidal damage (five point scale) [7]	POST Application SETFA herbicidal damage (five point scale) [8]	POST Application ECHCG herbicidal damage (five point scale) [9]	POST Application SOLNI herbicidal damage (five point scale) [10]	POST Application AMARE herbicidal damage (five point scale) [11]	POST Application IPOHE herbicidal damage (five point scale) [12]
Cc1c(-c2cnn(C)c(=O)c2O)ccc2c1C(=O)N(C)S2(=O)=O [Compound 1.035]	1 (1=0-19% damage)	1 (1=0-19% damage)	5 (5=80-100% damage)	3 (3=40-59% damage)	5 (5=80-100% damage)	4 (4=60-79% damage)	2 (2=20-39% damage)	1 (1=0-19% damage)	5 (5=80-100% damage)	5 (5=80-100% damage)	5 (5=80-100% damage)	5 (5=80-100% damage)
Cn1ncc(-n2ccc(C(F)(F)F)c(-c3cccc(S(C)(=O)=O)c3)c2=O)c(O)c1=O [Compound 7.023]	2 (2=20-39% damage)	4 (4=60-79% damage)	2 (2=20-39% damage)	5 (5=80-100% damage)	5 (5=80-100% damage)	2 (2=20-39% damage)	1 (1=0-19% damage)	4 (4=60-79% damage)	4 (4=60-79% damage)	5 (5=80-100% damage)	5 (5=80-100% damage)	1 (1=0-19% damage)
Cn1ncc(-c2c(F)cnc(F)c2F)c(O)c1=O [Compound 1.149]	1 (1=0-19% damage)	1 (1=0-19% damage)	1 (1=0-19% damage)	1 (1=0-19% damage)	1 (1=0-19% damage)	1 (1=0-19% damage)	2 (2=20-39% damage)	1 (1=0-19% damage)	1 (1=0-19% damage)	4 (4=60-79% damage)	4 (4=60-79% damage)	1 (1=0-19% damage)
CC(C)OCc1ccc(-c2cnn(C)c(=O)c2O)c(S(C)(=O)=O)c1 [Compound 2.043]	3 (3=40-59% damage)	1 (1=0-19% damage)	5 (5=80-100% damage)	5 (5=80-100% damage)	5 (5=80-100% damage)	2 (2=20-39% damage)	3 (3=40-59% damage)	4 (4=60-79% damage)	5 (5=80-100% damage)	5 (5=80-100% damage)	5 (5=80-100% damage)	5 (5=80-100% damage)
Cc1ccc(S(=O)(=O)Oc2c(-c3ccc(C(F)(F)F)cc3S(C)(=O)=O)cnn(C)c2=O)cc1 [Compound 3.006, [2-methyl-5-[2-methylsulfonyl-4-(trifluoromethyl)phenyl]-3-oxo-pyridazin-4-yl]4-methylbenzenesulfonate]	5 (5=80-100% damage)	5 (5=80-100% damage)	5 (5=80-100% damage)	5 (5=80-100% damage)	5 (5=80-100% damage)	4 (4=60-79% damage)	5 (5=80-100% damage)	5 (5=80-100% damage)	5 (5=80-100% damage)	5 (5=80-100% damage)	5 (5=80-100% damage)	5 (5=80-100% damage)
Cn1ncc(-n2ccc(C(F)(F)F)c(-c3ccccc3C(F)(F)F)c2=O)c(O)c1=O [Compound 1.052]	4 (4=60-79% damage)	4 (4=60-79% damage)	5 (5=80-100% damage)	5 (5=80-100% damage)	5 (5=80-100% damage)	1 (1=0-19% damage)	4 (4=60-79% damage)	5 (5=80-100% damage)	5 (5=80-100% damage)	5 (5=80-100% damage)	5 (5=80-100% damage)	5 (5=80-100% damage)
CC(=O)Oc1c(-c2ccc(C(F)(F)F)cc2S(C)(=O)=O)cnn(C)c1=O [Compound 3.001, [2-methyl-5-[2-methylsulfonyl-4-(trifluoromethyl)phenyl]-3-oxo-pyridazin-4-yl]acetate]	5 (5=80-100% damage)	5 (5=80-100% damage)	5 (5=80-100% damage)	5 (5=80-100% damage)	5 (5=80-100% damage)	5 (5=80-100% damage)	5 (5=80-100% damage)	5 (5=80-100% damage)	5 (5=80-100% damage)	5 (5=80-100% damage)	5 (5=80-100% damage)	5 (5=80-100% damage)
Cn1ncc(-c2ccc(S(=O)(=O)N3CCOCC3)cc2S(C)(=O)=O)c(O)c1=O [Compound 2.037]	3 (3=40-59% damage)	2 (2=20-39% damage)	5 (5=80-100% damage)	5 (5=80-100% damage)	5 (5=80-100% damage)	4 (4=60-79% damage)	3 (3=40-59% damage)	4 (4=60-79% damage)	5 (5=80-100% damage)	5 (5=80-100% damage)	5 (5=80-100% damage)	5 (5=80-100% damage)
